Measurements from US11160803B2, “Phthalazinone derivatives” (KUDOS PHARMACEUTICALS LIMITED, priority 2003, dated 2021).

Experiments:
[1] = system: Brca1 deficient (Cre10) ES cells; experiment: Clonogenic survival, continuous exposure, Brca1 deficient ES cells; format: cell-based
Procedure: (§1) To assess the stand alone activity of a PARP inhibitor on Braca 1 and 2 deficient cells the following protocols were used.
(§2) Compound (4) was dissolved in DMSO at 10 mM and stored at −20° C. in the dark.
(§3) VC8 cells and the mouse Brca2 BAC complemented derivatives were as described in M. Kraakman-van der Zwet, et al., Mol Cell Biol 22, 669-79 (2002)). ES cells defective in Brca2 function have been described previously (Tutt, et al., EMBO Rep 3, 255-60 (2002)). The construction of ES cells defective in Brca1 will be described elsewhere but have previously been validated (Foray, et al., Embo J, 22, 2860-71 (2003)).
(§4) For measurement of cellular sensitivity to a PARP inhibitor (compound 4), cell cultures in exponential growth were trypsinised and seeded at various densities in 6-well plates onto Mitomycin C inactivated mouse embryonic fibroblasts and where appropriate treated with the test compound after 18 hours. For continuous exposure, cells were re-fed every 4 days with fresh medium and inhibitor. After 10-14 days, cells were washed with PBS, fixed in methanol and stained with crystal violet. Colonies containing greater than approximately 50 cells were counted. Experiments were performed at least three times in triplicate.

[2] = system: Brca1 wild type (11CO) ES cells; experiment: Clonogenic survival, continuous exposure, Brca1 wild type ES cells; format: cell-based; conditions: matched wild type cells (Brca1), clonogenic assay, continuous exposure (FIG. 1A)
Procedure: as §1, §2, §3, §4

[3] = system: Brca2 deficient (Cre24) ES cells; experiment: Clonogenic survival, continuous exposure, Brca2 deficient ES cells; format: cell-based; conditions: ratio of SF50 wild type / Brca2 deficient ES cells
Procedure: as §1, §2, §3, §4

[4] = system: Brca2 wild type (D3) ES cells; experiment: Clonogenic survival, continuous exposure, Brca2 wild type ES cells; format: cell-based; conditions: matched wild type cells (Brca2), clonogenic assay, continuous exposure (FIG. 1B)
Procedure: as §1, §2, §3, §4

[5] = system: Chinese hamster ovary cells deficient in Brca2 (VC8); experiment: Clonogenic survival, continuous exposure, Brca2 deficient VC8 cells; format: cell-based
[6] = system: Brca2-complemented derivative (VC8-BAC); experiment: Clonogenic survival, continuous exposure, Brca2-complemented VC8-BAC cells; format: cell-based, Chinese hamster; conditions: matched control VC8-BAC, clonogenic assay (FIG. 2)

O=C(c1cc(Cc2n[nH]c(=O)c3ccccc23)ccc1F)N1CCCNCC1 [compound 4, 4-[3-([1,4]diazepane-1-carbonyl)-4-fluorobenzyl]-2H-phthalazin-1-one]
SF50 (dosage at which 50% of cells survived) ([1]; cells deficient in Brca1, clonogenic assay, continuous exposure (FIG. 1A)): 15 nM
fold enhanced sensitivity of Brca1 mutant cells compared to wild type cells ([1]; ratio of SF50 wild type / Brca1 deficient): 467 fold
SF50 (dosage at which 50% of cells survived) [2]: 7 µM
fold enhanced sensitivity of Brca2 mutant cells compared to wild type cells [3]: 1,500 fold
SF50 (dosage at which 50% of cells survived) [4]: 18 µM
SF50 (dosage at which 50% of cells survived) ([5]; Brca2 deficient VC8 line, clonogenic assay (FIG. 2)): 50 nM
fold enhanced sensitivity of Brca2 mutant cells compared to wild type cells ([5]; ratio of SF50 VC8-BAC / VC8): 600 fold
SF50 (dosage at which 50% of cells survived) [6]: 30 µM
